From publication PMC9829398 (Plant Biotechnology Journal, 2022)

Legend:
[1] = molecular target: EGFR‐associated tyrosine kinase; set-up: method as in Hsu et al., [1991]; details: ref Hsu et al., [1991]; cited from earlier work
tobacco roots = experiment: RNA-seq of tobacco roots (DEGs, GO and KEGG classification and enrichment); type: in vivo
ANJEA‐CD = experiment: ANJEA-CD kinase activity (autophosphorylation); type: biochemical, Arabidopsis thaliana; details: 5 μM
[2] = KEGG ko00040 Pentose and glucuronate interconversions
[3] = KEGG ko00052 Galactose metabolism
[4] = KEGG ko00062 Fatty acid elongation
[5] = KEGG ko00071 Fatty acid degradation
[6] = KEGG ko00073 Cutin, suberine and wax biosynthesis
[7] = KEGG ko00100 Steroid biosynthesis
[8] = KEGG ko00250 Alanine, aspartate and glutamate metabolism
[9] = KEGG ko00270 Cysteine and methionine metabolism
[10] = KEGG ko00290 Valine, leucine and isoleucine biosynthesis
[11] = KEGG ko00330 Arginine and proline metabolism
[12] = KEGG ko00350 Tyrosine metabolism
[13] = KEGG ko00360 Phenylalanine metabolism
[14] = KEGG ko00410 beta-Alanine metabolism
[15] = KEGG ko00430 Taurine and hypotaurine metabolism
[16] = KEGG ko00460 Cyanoamino acid metabolism
[17] = KEGG ko00480 Glutathione metabolism
[18] = KEGG ko00500 Starch and sucrose metabolism
[19] = KEGG ko00511 Other glycan degradation
[20] = KEGG ko00520 Amino sugar and nucleotide sugar metabolism
[21] = KEGG ko00531 Glycosaminoglycan degradation
[22] = KEGG ko00561 Glycerolipid metabolism
[23] = KEGG ko00564 Glycerophospholipid metabolism
[24] = KEGG ko00590 Arachidonic acid metabolism
[25] = KEGG ko00591 Linoleic acid metabolism
[26] = KEGG ko00592 alpha-Linolenic acid metabolism
[27] = KEGG ko00603 Glycosphingolipid biosynthesis - globo series
[28] = KEGG ko00604 Glycosphingolipid biosynthesis - ganglio series
[29] = KEGG ko00650 Butanoate metabolism
[30] = KEGG ko00730 Thiamine metabolism
[31] = KEGG ko00760 Nicotinate and nicotinamide metabolism
[32] = KEGG ko00770 Pantothenate and CoA biosynthesis
[33] = KEGG ko00904 Diterpenoid biosynthesis
[34] = KEGG ko00905 Brassinosteroid biosynthesis
[35] = KEGG ko00906 Carotenoid biosynthesis
[36] = KEGG ko00908 Zeatin biosynthesis
[37] = KEGG ko00909 Sesquiterpenoid and triterpenoid biosynthesis
[38] = KEGG ko00910 Nitrogen metabolism
[39] = KEGG ko00940 Phenylpropanoid biosynthesis
[40] = KEGG ko00941 Flavonoid biosynthesis
[41] = KEGG ko00950 Isoquinoline alkaloid biosynthesis
[42] = KEGG ko00960 Tropane, piperidine and pyridine alkaloid biosynthesis
[43] = KEGG ko00980 Metabolism of xenobiotics by cytochrome P450
[44] = KEGG ko00982 Drug metabolism - cytochrome P450
[45] = KEGG ko01040 Biosynthesis of unsaturated fatty acids
[46] = KEGG ko03320 PPAR signaling pathway
[47] = KEGG ko04010 MAPK signaling pathway
[48] = KEGG ko04011 MAPK signaling pathway - yeast
[49] = KEGG ko04020 Calcium signaling pathway
[50] = KEGG ko04022 cGMP-PKG signaling pathway
[51] = KEGG ko04075 Plant hormone signal transduction
[52] = KEGG ko04140 Regulation of autophagy
[53] = KEGG ko04211 Longevity regulating pathway
[54] = KEGG ko04212 Longevity regulating pathway - worm
[55] = KEGG ko04370 VEGF signaling pathway
[56] = KEGG ko04380 Osteoclast differentiation
[57] = KEGG ko04614 Renin-angiotensin system
[58] = KEGG ko04626 Plant-pathogen interaction
[59] = KEGG ko04650 Natural killer cell mediated cytotoxicity
[60] = KEGG ko04660 T cell receptor signaling pathway
[61] = KEGG ko04662 B cell receptor signaling pathway
[62] = KEGG ko04712 Circadian rhythm - plant
[63] = KEGG ko04720 Long-term potentiation
[64] = KEGG ko04723 Retrograde endocannabinoid signaling
[65] = KEGG ko04724 Glutamatergic synapse
[66] = KEGG ko04810 Regulation of actin cytoskeleton
[67] = KEGG ko04920 Adipocytokine signaling pathway
[68] = KEGG ko04921 Oxytocin signaling pathway
[69] = KEGG ko04922 Glucagon signaling pathway
[70] = KEGG ko04974 Protein digestion and absorption
[71] = KEGG ko04975 Fat digestion and absorption
[72] = tobacco roots, 5 μM irrigated twice, coregulated genes, vs DMSO

SMILES: O=C(O)c1cc(N(Cc2ccccc2O)Cc2cc(O)ccc2O)ccc1O [Lavendustin A]
- IC50 for EGFR-associated tyrosine kinase [1]: Lavendustin A (RG‐14355), isolated from Streptomyces Griseolavendus, is a potent, specific and ATP‐competitive inhibitor of tyrosine kinase, with an IC50 of 11 ng/mL for EGFR‐associated tyrosine kinase (Hsu et al., [1991])
- Enrichment_score (tobacco roots; [2]): 1.762
- ListHits (tobacco roots; [2]): 11
- Enrichment_score (tobacco roots; [3]): 3.118
- ListHits (tobacco roots; [3]): 9
- Enrichment_score (tobacco roots; [4]): 4.058
- ListHits (tobacco roots; [4]): 8
- Enrichment_score (tobacco roots; [5]): 0.9908
- ListHits (tobacco roots; [5]): 2
- Enrichment_score (tobacco roots; [6]): 6.683
- ListHits (tobacco roots; [6]): 16
- Enrichment_score (tobacco roots; [7]): 3.5933
- ListHits (tobacco roots; [7]): 7
- Enrichment_score (tobacco roots; [8]): 2.602
- ListHits (tobacco roots; [8]): 8
- Enrichment_score (tobacco roots; [9]): 1.358
- ListHits (tobacco roots; [9]): 8
- Enrichment_score (tobacco roots; [10]): 1.495
- ListHits (tobacco roots; [10]): 2
- Enrichment_score (tobacco roots; [11]): 2.996
- ListHits (tobacco roots; [11]): 9
- Enrichment_score (tobacco roots; [12]): 1.721
- ListHits (tobacco roots; [12]): 4
- Enrichment_score (tobacco roots; [13]): 3.551
- ListHits (tobacco roots; [13]): 8
- Enrichment_score (tobacco roots; [14]): 1.826
- ListHits (tobacco roots; [14]): 6
- Enrichment_score (tobacco roots; [15]): 1.704
- ListHits (tobacco roots; [15]): 1
- Enrichment_score (tobacco roots; [16]): 2.209
- ListHits (tobacco roots; [16]): 7
- Enrichment_score (tobacco roots; [17]): 1.785
- ListHits (tobacco roots; [17]): 8
- Enrichment_score (tobacco roots; [18]): 2.489
- ListHits (tobacco roots; [18]): 34
- Enrichment_score (tobacco roots; [19]): 1.253
- ListHits (tobacco roots; [19]): 1
- Enrichment_score (tobacco roots; [20]): 1.791
- ListHits (tobacco roots; [20]): 14
- Enrichment_score (tobacco roots; [21]): 1.152
- ListHits (tobacco roots; [21]): 1
- Enrichment_score (tobacco roots; [22]): 2.272
- ListHits (tobacco roots; [22]): 8
- Enrichment_score (tobacco roots; [23]): 1.826
- ListHits (tobacco roots; [23]): 9
- Enrichment_score (tobacco roots; [24]): 1.2911
- ListHits (tobacco roots; [24]): 1
- Enrichment_score (tobacco roots; [25]): 6.087
- ListHits (tobacco roots; [25]): 6
- Enrichment_score (tobacco roots; [26]): 4.111
- ListHits (tobacco roots; [26]): 11
- Enrichment_score (tobacco roots; [27]): 4.485
- ListHits (tobacco roots; [27]): 2
- Enrichment_score (tobacco roots; [28]): 4.734
- ListHits (tobacco roots; [28]): 1
- Enrichment_score (tobacco roots; [29]): 1.671
- ListHits (tobacco roots; [29]): 2
- Enrichment_score (tobacco roots; [30]): 1.522
- ListHits (tobacco roots; [30]): 1
- Enrichment_score (tobacco roots; [31]): 4.438
- ListHits (tobacco roots; [31]): 5
- Enrichment_score (tobacco roots; [32]): 1.397
- ListHits (tobacco roots; [32]): 2
- Enrichment_score (tobacco roots; [33]): 1.0025
- ListHits (tobacco roots; [33]): 2
- Enrichment_score (tobacco roots; [34]): 2.84
- ListHits (tobacco roots; [34]): 2
- Enrichment_score (tobacco roots; [35]): 1.079
- ListHits (tobacco roots; [35]): 2
- Enrichment_score (tobacco roots; [36]): 1.973
- ListHits (tobacco roots; [36]): 5
- Enrichment_score (tobacco roots; [37]): 1.739
- ListHits (tobacco roots; [37]): 2
- Enrichment_score (tobacco roots; [38]): 6.015
- ListHits (tobacco roots; [38]): 12
- Enrichment_score (tobacco roots; [39]): 5.314
- ListHits (tobacco roots; [39]): 58
- Enrichment_score (tobacco roots; [40]): 1.173
- ListHits (tobacco roots; [40]): 3
- Enrichment_score (tobacco roots; [41]): 2.794
- ListHits (tobacco roots; [41]): 4
- Enrichment_score (tobacco roots; [42]): 4.058
- ListHits (tobacco roots; [42]): 6
- Enrichment_score (tobacco roots; [43]): 2.166
- ListHits (tobacco roots; [43]): 6
- Enrichment_score (tobacco roots; [44]): 2.749
- ListHits (tobacco roots; [44]): 8
- Enrichment_score (tobacco roots; [45]): 1.121
- ListHits (tobacco roots; [45]): 2
- Enrichment_score (tobacco roots; KEGG ko02010 ABC transporters): 2.282
- ListHits (tobacco roots; KEGG ko02010 ABC transporters): 3
- Enrichment_score (tobacco roots; [46]): 2.72
- ListHits (tobacco roots; [46]): 3
- Enrichment_score (tobacco roots; [47]): 1.195
- ListHits (tobacco roots; [47]): 3
- Enrichment_score (tobacco roots; [48]): 1.3634
- ListHits (tobacco roots; [48]): 4
- Enrichment_score (tobacco roots; [49]): 1.535
- ListHits (tobacco roots; [49]): 4
- Enrichment_score (tobacco roots; [50]): 1.209
- ListHits (tobacco roots; [50]): 4
- Enrichment_score (tobacco roots; [51]): 1.797
- ListHits (tobacco roots; [51]): 28
- Enrichment_score (tobacco roots; [52]): 1.598
- ListHits (tobacco roots; [52]): 3
- Enrichment_score (tobacco roots; KEGG ko04146 Peroxisome): 1.462
- ListHits (tobacco roots; KEGG ko04146 Peroxisome): 7
- Enrichment_score (tobacco roots; [53]): 1.677
- ListHits (tobacco roots; [53]): 5
- Enrichment_score (tobacco roots; [54]): 1.175
- ListHits (tobacco roots; [54]): 4
- Enrichment_score (tobacco roots; KEGG ko04360 Axon guidance): 2.905
- ListHits (tobacco roots; KEGG ko04360 Axon guidance): 6
- Enrichment_score (tobacco roots; [55]): 2.242
- ListHits (tobacco roots; [55]): 3
- Enrichment_score (tobacco roots; [56]): 2.242
- ListHits (tobacco roots; [56]): 3
- Enrichment_score (tobacco roots; [57]): 9.13
- ListHits (tobacco roots; [57]): 3
- Enrichment_score (tobacco roots; [58]): 1.285
- ListHits (tobacco roots; [58]): 13
- Enrichment_score (tobacco roots; [59]): 2.412
- ListHits (tobacco roots; [59]): 3
- Enrichment_score (tobacco roots; [60]): 2.905
- ListHits (tobacco roots; [60]): 3
- Enrichment_score (tobacco roots; [61]): 2.204
- ListHits (tobacco roots; [61]): 3
- Enrichment_score (tobacco roots; [62]): 1.266
- ListHits (tobacco roots; [62]): 3
- Enrichment_score (tobacco roots; [63]): 1.66
- ListHits (tobacco roots; [63]): 3
- Enrichment_score (tobacco roots; [64]): 1.014
- ListHits (tobacco roots; [64]): 1
- Enrichment_score (tobacco roots; [65]): 1.982
- ListHits (tobacco roots; [65]): 4
- Enrichment_score (tobacco roots; KEGG ko04727 GABAergic synapse): 1.8
- ListHits (tobacco roots; KEGG ko04727 GABAergic synapse): 3
- Enrichment_score (tobacco roots; [66]): 1.244
- ListHits (tobacco roots; [66]): 4
- Enrichment_score (tobacco roots; [67]): 3.4085
- ListHits (tobacco roots; [67]): 6
- Enrichment_score (tobacco roots; [68]): 1.746
- ListHits (tobacco roots; [68]): 5
- Enrichment_score (tobacco roots; [69]): 1.2104
- ListHits (tobacco roots; [69]): 5
- Enrichment_score (tobacco roots; KEGG ko04924 Renin secretion): 2.282
- ListHits (tobacco roots; KEGG ko04924 Renin secretion): 3
- Enrichment_score (tobacco roots; [70]): 11.3617
- ListHits (tobacco roots; [70]): 4
- Enrichment_score (tobacco roots; [71]): 3.551
- ListHits (tobacco roots; [71]): 1
- Enrichment_score (tobacco roots; KEGG ko04976 Bile secretion): 2.324
- ListHits (tobacco roots; KEGG ko04976 Bile secretion): 3
- Expression levels of growth-related genes in tobacco roots (tobacco roots; RNA-seq, GO growth, vs DMSO): differentially elevated the expression levels of most growth‐related genes
- Expression levels of RBOHs, MYB44, TGA2, WRKY19, EFR, FLS2, PR1 and PDF1.4 in tobacco roots (tobacco roots; RNA-seq, vs DMSO): significantly increased the expression levels
- Antioxidant genes (GO antioxidant activity) up-regulated (tobacco roots; [72]): 60 of 61
- Immune genes (GO immune system process) up-regulated (tobacco roots; [72]): 70 of 82
- Environmental adaptation-related genes (KEGG) up-regulated (tobacco roots; tobacco roots, coregulated genes, vs DMSO): 22 of 29
- Inhibition rate of ANJEA-CD kinase activity (ANJEA‐CD): lower than 55%
